SMILES strings stand for the structures.

In the test the target is T1, human LPA1 (Homo sapiens, UniProt Q92633).
T1 construct: the full-length cDNA for human LPA1 was obtained by PCR of the reverse transcription reaction; expressed in transfected cells
T1 sequence (Q92633 whole entry): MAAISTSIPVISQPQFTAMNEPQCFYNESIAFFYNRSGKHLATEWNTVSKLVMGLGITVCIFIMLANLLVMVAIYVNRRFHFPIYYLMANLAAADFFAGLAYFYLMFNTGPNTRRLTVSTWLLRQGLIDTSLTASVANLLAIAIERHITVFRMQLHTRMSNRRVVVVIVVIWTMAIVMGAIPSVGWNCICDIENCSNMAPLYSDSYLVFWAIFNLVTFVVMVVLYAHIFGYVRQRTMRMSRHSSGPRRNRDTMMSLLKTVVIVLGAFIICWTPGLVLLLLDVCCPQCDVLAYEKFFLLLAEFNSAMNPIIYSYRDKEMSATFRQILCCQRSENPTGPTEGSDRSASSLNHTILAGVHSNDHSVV
The test is described as follows: LPA1 calcium flux assay. The class given is cell-based. To be noted: human LPA1 expressing CHO cells, stimulated with 10 nM LPA; read-out: HLPA1 Ca Flux IC50. In outline: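 CHO cells stably expressing human LPA1, serum-starved overnight and loaded with Calcium 4 dye in HBSS/20 mM Hepes/0.3% fatty-acid-free HSA, 1 h at 37 °C. Compounds pre-incubated 30 min at room temperature, then 10 nM LPA added; intracellular Ca2+ flux measured and IC50 from titration curves.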
A general note: A change in cytosolic calcium serves as a functional read-out for many receptors and channels.
As usually defined, the IC50 is the point on the concentration scale where inhibition reaches its midpoint. With `Cc1noc(-c2ccc(-c3ccc(C4(C(=O)O)CC4)cc3)cc2)c1C(O)c1cn(Cc2c(F)cccc2Cl)nn1` (stereo not drawn) [Compound 1-71, 1-[4′-(4-{[1-(2-Chloro-6-fluoro-benzyl)-1H-[1,2,3]triazol-4-yl]-hydroxy-methyl}-3-methyl-isoxazol-5-yl)-biphenyl-4-yl]-cyclopropanecarboxylic acid], the IC50 is below 300 nM.

Regarding `Cc1noc(-c2ccc(-c3ccc(C4(C(=O)O)CC4)cc3)cc2)c1C(O)c1cn(Cc2c(Cl)cccc2Cl)nn1` (stereo not drawn) [Compound 1-72, 1-[4′-(4-{[1-(2,6-Dichloro-benzyl)-1H-[1,2,3]triazol-4-yl]-hydroxy-methyl}-3-methyl-isoxazol-5-yl)-biphenyl-4-yl]-cyclopropanecarboxylic acid], the IC50 lay in the range of 300 to 1000 nM.

For the compound `Cc1noc(-c2ccc(-c3ccc(C4(C(=O)O)CC4)cc3)cc2)c1Nc1cccc(Cc2ccccc2)n1` [Compound 1-73, 1-{4′-[4-(6-Benzyl-pyridin-2-ylamino)-3-methyl-isoxazol-5-yl]-biphenyl-4-yl}-cyclopropanecarboxylic acid], the IC50 was below 300 nM.

For the compound `Cc1noc(-c2ccc(-c3ccc(C4(C(=O)O)CC4)cc3)cc2)c1Nc1cccc(-c2ccccc2)c1` [Compound 1-74, 1-{4′-[4-(Biphenyl-3-ylamino)-3-methyl-isoxazol-5-yl]-biphenyl-4-yl}-cyclopropanecarboxylic acid], the IC50 was below 300 nM.

In the case of `Cc1noc(-c2ccc(-c3ccc(C4(C(=O)O)CC4)cc3)cc2)c1Nc1ccc(-c2ccccc2)cc1` [Compound 1-75, 1-{4′-[4-(Biphenyl-4-ylamino)-3-methyl-isoxazol-5-yl]-biphenyl-4-yl}-cyclopropanecarboxylic acid], the IC50 is 300 to 1000 nM.

As for `Cc1noc(-c2ccc(-c3ccc(CC(=O)O)cc3)cc2)c1Nc1cccc(-c2ccccc2)n1` [Compound 1-76, {4′-[3-Methyl-4-(6-phenyl-pyridin-2-ylamino)-isoxazol-5-yl]-biphenyl-4-yl}-acetic acid], the IC50 was below 300 nM.

On to `Cc1noc(-c2ccc(-c3ccc(C4(C(=O)O)CC4)cc3)cc2)c1Nc1cccc(-c2cccc(C(F)(F)F)c2)n1` [Compound 1-77, 1-(4′-{3-Methyl-4-[6-(3-trifluoromethyl-phenyl)-pyridin-2-ylamino]-isoxazol-5-yl}-biphenyl-4-yl)-cyclopropanecarboxylic acid], for which the IC50 was below 300 nM.

In the case of `Cc1noc(-c2ccc(-c3ccc(C4(C(=O)O)CC4)cc3)cc2)c1Nc1cncc(-c2ccccc2)n1` [Compound 1-78, 1-{4′-[3-Methyl-4-(6-phenyl-pyrazin-2-ylamino)-isoxazol-5-yl]-biphenyl-4-yl}-cyclopropanecarboxylic acid], the IC50 was below 300 nM.

`Cc1noc(-c2ccc(-c3ccc(C4(C(=O)O)CC4)cc3)cc2)c1Nc1cccc(Oc2ccccc2)n1` [Compound 1-79, 1-{4′-[3-Methyl-4-(6-phenoxy-pyridin-2-ylamino)-isoxazol-5-yl]-biphenyl-4-yl}-cyclopropanecarboxylic acid]: the IC50 is below 300 nM.

For `Cc1noc(-c2ccc(-c3ccc(C4(C(=O)O)CC4)cc3)cc2)c1Nc1nnc(-c2ccccc2)o1` [Compound 1-80, 1-{4′-[3-Methyl-4-(5-phenyl-[1,3,4]oxadiazol-2-ylamino)-isoxazol-5-yl]-biphenyl-4-yl}-cyclopropanecarboxylic acid], the IC50 was below 300 nM.

As to `Cc1noc(-c2ccc(-c3ccc(CCC(=O)O)cc3)cc2)c1Nc1nnc(-c2ccccc2)o1` [Compound 1-81, 3-{4′-[3-Methyl-4-(5-phenyl[1,3,4]oxadiazol-2-ylamino)-isoxazol-5-yl]-biphenyl-4-yl}-propionic acid], the IC50 is below 300 nM.

`Cc1noc(-c2ccc(-c3ccc(C4(C(=O)O)CC4)cc3)cc2)c1Nc1cccc(Oc2ccccc2)c1` [Compound 1-82, 1-{4′-[3-Methyl-4-(3-phenoxy-phenylamino)-isoxazol-5-yl]-biphenyl-4-yl}-cyclopropanecarboxylic acid]: the IC50 is below 300 nM.
